A word on the Ki: it is a measure of affinity in units of concentration, obtained from inhibition or displacement.

This experiment deals with μ-opioid receptors (Homo sapiens, UniProt P35372). Description: μ-opioid receptor radioligand dose-displacement binding assay ([3H]-diprenorphine). As to the method:
μ- and ORL-1-Receptor-Binding-Assay Procedures
Radioligand dose-displacement binding assays for ORL-1 and […] use 0.1 nM [^3H]-nociceptin or 0.2 nM [^3H]-diprenorphine (NEN, Boston, Mass.), respectively, with […] membrane protein/well in a final volume of […] binding buffer (10 mM MgCl2, 1 mM EDTA, 5% DMSO, 50 mM HEPES, pH 7.4). Reactions are carried out in the absence or presence of increasing concentrations of unlabled nociceptin (American Peptide Company, Sunnyvale, Calif.) or naloxone, for ORL-1 and μ, respectively. All reactions are conducted in 96-deep well polypropylene plates for 1-2 h at room temperature. Binding reactions are terminated by rapid filtration onto 96-well Unifilter GF/C filter plates (Packard, Meriden, Conn.) presoaked in 0.5% polyethylenimine using a 96-well tissue harvester (Brandel, Gaithersburg, Md.) followed performing by three filtration washes with 500 μL of ice-cold binding buffer. Filter plates are subsequently dried at 50° C. for 2-3 h. BetaScint scintillation cocktail (Wallac, Turku, Finland) is added (50 μl/well), and plates are counted using a Packard Top-Count for 1 min/well. The data are analyzed using the one-site competition curve fitting functions in GraphPad PRISM v. 3.0 (San Diego, Calif.).

Sequence of μ-opioid receptors (P35372 whole entry): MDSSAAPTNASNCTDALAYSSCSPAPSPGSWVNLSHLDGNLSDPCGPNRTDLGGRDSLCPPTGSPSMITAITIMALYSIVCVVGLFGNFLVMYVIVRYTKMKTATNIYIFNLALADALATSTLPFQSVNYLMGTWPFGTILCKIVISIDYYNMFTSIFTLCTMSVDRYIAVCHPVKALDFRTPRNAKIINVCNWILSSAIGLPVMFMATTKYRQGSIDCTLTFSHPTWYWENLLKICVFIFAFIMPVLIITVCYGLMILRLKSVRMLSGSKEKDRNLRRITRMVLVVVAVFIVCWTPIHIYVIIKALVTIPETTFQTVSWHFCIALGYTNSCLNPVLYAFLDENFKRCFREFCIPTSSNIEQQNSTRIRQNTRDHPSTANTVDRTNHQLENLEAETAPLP

The compound `CN(C)C(=O)C(CCN1CCC(c2ccccc2)(c2nnn[nH]2)CC1)(c1ccccc1)c1ccccc1` [AFD] registered a Ki of 3.2 nM.

Source of the values: US8026254B2, “Therapeutic agents useful for treating pain” (Purdue Pharma, L.P., priority 2002, dated 2011).
